pEC50: −log10 of the molar value.

The data set can be described thus: Reversal of P-gp-mediated multidrug resistance to vinblastine in human CEM/VLB500 cells after 3 days by resazurin assay.
For orientation: pEC50 means −log10 of the EC50, conventionally taken in molar units. Regarding `COc1ccc(CCN2CCC[C@@H]2CNC(=O)c2ccccc2NC(=O)c2cnc3ccccc3c2)cc1OC` [(R) N-(2-((1-(3,4-dimethoxyphenethyl)pyrrolidin-2-yl)methylcarbamoyl)phenyl)quinoline-3-carboxamide], the pEC50 was 6.32.
Then `COc1ccc(CCN2CCC[C@H]2CNC(=O)c2ccccc2NC(=O)c2cnc3ccccc3c2)cc1OC` [(S) N-(2-((1-(3,4-dimethoxyphenethyl)pyrrolidin-2-yl)methylcarbamoyl)phenyl)quinoline-3-carboxamide], with 6.48.
In the case of `COc1cc2c(cc1OC)CN(CCc1ccc(NC(=O)c3cc(OC)c(OC)cc3NC(=O)c3cnc4ccccc4c3)cc1)CC2`, the negative logarithm of the EC50 (pEC50) was 7.17.
Then `COc1ccc(CN2CCN(c3ccc(NC(=O)c4ccccc4NC(=O)c4cnc5ccccc5c4)cc3)CC2)cc1OC` [N-(2-(4-(4-(3,4-dimethoxybenzyl)piperazin-1-yl)phenylcarbamoyl)phenyl)quinoline-3-carboxamide], with 6.91; and `O=C(Nc1ccccc1C(=O)N[C@@H]1CCCC[C@@H]1N1CCN(c2ccccc2)CC1)c1cnc2ccccc2c1` (racemic) [rac-cis-N-(2-(2-(4-phenylpiperazin-1-yl)cyclohexylcarbamoyl)phenyl)quinoline-3-carboxamide], with 6.19; and `COc1ccc(CN2CCN(c3ccc(NC(=O)c4cc(OC)c(OC)cc4NC(=O)c4cnc5ccccc5c4)cc3)CC2)cc1OC` [N-(2-(4-(4-(3,4-dimethoxybenzyl)piperazin-1-yl)phenylcarbamoyl)-4,5-dimethoxyphenyl)quinoline-3-carboxamide], with 7.23.

For the origin of these results see BindingDB's records for doi:10.1016/j.bmc.2007.03.014 (Universit&#233, 2007).
